# Laboratory results published in patent US6335030B1, “Transdermally administered dextromethorphan as antitussive agent” (Pharmacia & Upjohn AB, priority 1996, dated 2002).
# How the values were obtained:
# [1] = In vitro skin permeation in Franz diffusion cells; assay type: in vitro ADME, pig
# Excerpt: Quantitative determination of dextromethorphan in the receptor solution samples from the skin permeation studies in Example 3 and from the membrane permeation studies in Example 4 was done by the HPLC method described under Apparatus.
# In vitro permeation of dextromethorphan from the solutions 1, 2, 3, 4, 5, 6, 7 and 8 through dermatomed pig skin was investigated in Franz diffusion Cells.
# Skin pieces with a thickness of approximately 765 μm were dermatomed from full thickness pig skin and mounted in glass diffusion cells with an available diffusion area of 1.8 cm^2. Pig skin is a fully accepted model for human skin. The solutions were applied separately on the skin surfaces and the dermal sides were all exposed to 12.1 ml receptor solution consisting of a 0.05M phosphate buffer solution of pH 7.4 equilibrated to 37±1° C.
# Permeation of dextromethorphan was followed by removing samples periodically and measuring the concentration by the HPLC method according to Example 2. An increase in the permeated amount of dextromethorphan is seen in the following order: Water, isopropyl myristate, propylene glycol, propylene glycol containing 5% azone, water containing 1% hydroxpropyl-b-cyclodextrine, water containing 1% b-cyclodextrine, ethanol and ethyl acetate used as solvents. The maximal observed flux of dextromethorphan is 21 μg/cm^2/h and the range is from approximately 0.5 to 21 μg/cm^2/h.
# [2] = cited from earlier work
# [3] = peroral, dogs; cited from earlier work
# [4] = in vivo; cited from earlier work
# [5] = in vivo; cited from earlier work; remark: listed apart in the source
smiles,measurement,setting,value
"COc1ccc2c(c1)[C@]13CCCC[C@@H]1[C@H](C2)N(C)CC3 [dextromethorphan, (+)-3-methoxy-17-methyl-9a,13a,14a-morphinan]",maximal observed flux through skin,"[1]; dermatomed pig skin, solutions 1-8, receptor phosphate buffer pH 7.4, 37°C",21 μg/cm^2/h
same,change of flux depending on solvent,"[1]; ethanol, ethyl acetate or addition of cyclodextrines as solvent",remarkable increase in the fluxes
same,effect on coughing frequency and intensity compared to placebo,"[2]; 40 mg perorally, tussometri",significant effect on reducing coughing frequency as well as intensity
same,antitussive effect upon inhalation,[2]; inhalation of 1-30 mg,has not shown any antitussive effect
same,absolute bioavailability,[3],3.8%
same,half-life,[4],4 to 6 h
same,safety,[5],safe drug
same,side-effects compared with codeine and noscapine,[5],fewer side-effects
